Test results reported in ChEMBL document CHEMBL3860073, “Thermodynamic properties of leukotriene A4 hydrolase inhibitors” (Bioorg Med Chem, 2016).

Legend:
[1] = target: T1, Leukotriene A-4 hydrolase (Homo sapiens) (UniProt P09960)
T1 sequence (whole entry): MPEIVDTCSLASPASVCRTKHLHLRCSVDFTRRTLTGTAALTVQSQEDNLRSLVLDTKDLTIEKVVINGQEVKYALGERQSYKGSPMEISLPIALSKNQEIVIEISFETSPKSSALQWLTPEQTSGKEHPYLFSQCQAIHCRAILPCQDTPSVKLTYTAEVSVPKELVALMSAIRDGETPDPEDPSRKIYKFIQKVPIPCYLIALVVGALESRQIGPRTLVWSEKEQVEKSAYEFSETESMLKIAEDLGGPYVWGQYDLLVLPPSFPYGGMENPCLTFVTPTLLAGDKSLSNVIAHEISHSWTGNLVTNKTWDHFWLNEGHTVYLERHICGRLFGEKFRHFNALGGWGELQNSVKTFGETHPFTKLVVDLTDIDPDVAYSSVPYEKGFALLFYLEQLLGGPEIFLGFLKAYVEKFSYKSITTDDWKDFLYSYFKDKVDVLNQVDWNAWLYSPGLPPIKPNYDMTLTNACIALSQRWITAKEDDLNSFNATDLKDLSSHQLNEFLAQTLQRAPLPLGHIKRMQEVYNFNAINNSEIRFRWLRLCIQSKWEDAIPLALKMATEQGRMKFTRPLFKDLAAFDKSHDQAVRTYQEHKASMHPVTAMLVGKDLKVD

[2] = target: T1, Leukotriene A-4 hydrolase (Homo sapiens); remark: listed apart in the source
Description: Binding affinity to human C-terminal His6-tagged/N-terminal T7 gene leader sequence-tagged LTA4H assessed as change in melting temperature at 1 mM by circular dichroism spectroscopic analysis

[3] = target: T2, Leukotriene A-4 hydrolase (Homo sapiens, UniProt P09960); assay: Inhibition of human C-terminal his6-tagged/N-terminal T7 gene leader sequence-tagged LTA4H using L-arginine-7-amino-4-Methylcoumarine as substrate preincubated for 30 mins followed by substrate addition measured for 30 mins by fluorescence assay
T2 sequence (P09960 whole entry): T1 sequence (whole entry)

[4] = target: T2, Leukotriene A-4 hydrolase; assay: Competitive inhibition of human C-terminal his6-tagged/N-terminal T7 gene leader sequence-tagged LTA4H using varying levels of L-arginine-7-amino-4-Methylcoumarine as substrate preincubated for 30 mins followed by substrate addition measured for 30 mins by fluorescence assay
[5] = target: T2, Leukotriene A-4 hydrolase; assay: Binding affinity to human C-terminal his6-tagged/N-terminal T7 gene leader sequence-tagged LTA4H at 15 degC by ITC method
[6] = target: T2, Leukotriene A-4 hydrolase; assay: Binding affinity to human C-terminal his6-tagged/N-terminal T7 gene leader sequence-tagged LTA4H at 25 degC by ITC method
[7] = target: T2, Leukotriene A-4 hydrolase; assay: Binding affinity to human C-terminal his6-tagged/N-terminal T7 gene leader sequence-tagged LTA4H at 35 degC by ITC method
[8] = target: T1, Leukotriene A-4 hydrolase (Homo sapiens); assay: Binding affinity to human C-terminal His6-tagged/N-terminal T7 gene leader sequence-tagged LTA4H assessed as change in melting temperature at 0.5 mM by circular dichroism spectroscopic analysis
[9] = target: T1, Leukotriene A-4 hydrolase (Homo sapiens); details: 40 uM

Row | SMILES | ΔTm [1] [°C] | ΔTm [2] [°C] | IC50 [3] [nM] | Ki [4] [nM] | Kd [5] [nM] | Kd [6] [nM] | Kd [7] [nM] | ΔTm [8] [°C] | ΔTm [9] [°C]
1 | CC(C)C[C@H](NC(=O)[C@@H](O)[C@H](N)Cc1ccccc1)C(=O)O | 5.1 | 5.2 |  |  |  |  |  |  | 
2 | CN(C)CCOc1ccc(Oc2ccccc2)cc1 | 5 |  | 60 | 160 | 60 | 270 | 270 | 7.8 | 
3 | C[C@H](CS)C(=O)N1CCC[C@H]1C(=O)O [CAPTOPRIL] | 1.5 | 0.7 | 3600 | 3700 | 6370 | 6250 | 8470 |  | 
4 | Nc1nc(-c2ccc(Cc3ccccc3)cc2)cs1 | 5.3 |  | 400 | 360 | 130 | 310 | 220 |  | 5.3
5 | CN(CCCOc1ccc(Cc2ccccc2)cc1)CCC(=O)O | 5.4 |  |  |  |  |  |  | 8.9 | 
